# Reference: patent publication US12414952B2 (Merck Sharp & Dohme LLC, priority 2018, dated 2025)
# How the values were obtained:
# [1] = target: human A2a adenosine receptor (Homo sapiens (Human), UniProt P29274); experiment: A2a binding affinity using radioligand binding, Method (A); settings: Method (A): [3H]SCH58261 filtration binding
# Procedure, shortened: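 Membranes from HEK293 or CHO cells expressing human A2a were preincubated with compound for 15–30 min at room temperature. [3H]SCH58261 was then added (4 nM working dilution) in 50 mM Tris pH 7.4, 10 mM MgCl2, 0.005% Tween20 for 60 min at room temperature. Bound radioactivity after filtration was normalised to total and non-specific binding, and IC50 came from 4-parameter logistic fits.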
# [2] = target: human A2b adenosine receptor (Homo sapiens (Human), UniProt P29275); experiment: A2b binding affinity, radioligand filtration binding assay; settings: tritiated proprietary A2b antagonist, HEK293 membranes
# human A2b adenosine receptor, sequence (P29275 whole entry): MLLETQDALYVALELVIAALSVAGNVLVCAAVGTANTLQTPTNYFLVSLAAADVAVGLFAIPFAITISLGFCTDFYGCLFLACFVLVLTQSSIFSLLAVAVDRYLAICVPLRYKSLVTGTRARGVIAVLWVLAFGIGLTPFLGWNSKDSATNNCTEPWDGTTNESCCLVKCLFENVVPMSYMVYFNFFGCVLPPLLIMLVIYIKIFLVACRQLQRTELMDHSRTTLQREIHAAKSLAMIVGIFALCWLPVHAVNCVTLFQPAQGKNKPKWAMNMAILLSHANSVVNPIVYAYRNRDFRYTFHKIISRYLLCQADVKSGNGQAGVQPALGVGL
# Description: Measurement of A2b Binding Affinity
# The reported affinity of the compounds of the invention for the human A2b adenosine receptor was determined experimentally using a radioligand filtration binding assay. This assay measures the amount of binding of a tritiated proprietary A2b receptor antagonist, in the presence and absence of a compound of the invention, to membranes made from HEK293 cells recombinantly expressing the human A2b adenosine receptor (Perkin Elmer, Cat. No. ES-013-C).
# The filter plate was incubated for at least 1 h at 55° C. and allowed to dry. The bottom of the filter plate was then sealed with backing tape. […] The plates were then incubated for at least 20 min, and then the amount of radioactivity remaining in each well was determined using a TopCount® (Perkin Elmer) scintillation counter. After normalization to total and non-specific binding, the percent effect at each compound concentration was calculated. The plot of percent effect versus the log of compound concentration was analyzed electronically using a 4-parameter logistic fit based on the Levenberg-Marquardt algorithm to generate IC50 values.
# human A2a adenosine receptor, sequence (P29274 whole entry): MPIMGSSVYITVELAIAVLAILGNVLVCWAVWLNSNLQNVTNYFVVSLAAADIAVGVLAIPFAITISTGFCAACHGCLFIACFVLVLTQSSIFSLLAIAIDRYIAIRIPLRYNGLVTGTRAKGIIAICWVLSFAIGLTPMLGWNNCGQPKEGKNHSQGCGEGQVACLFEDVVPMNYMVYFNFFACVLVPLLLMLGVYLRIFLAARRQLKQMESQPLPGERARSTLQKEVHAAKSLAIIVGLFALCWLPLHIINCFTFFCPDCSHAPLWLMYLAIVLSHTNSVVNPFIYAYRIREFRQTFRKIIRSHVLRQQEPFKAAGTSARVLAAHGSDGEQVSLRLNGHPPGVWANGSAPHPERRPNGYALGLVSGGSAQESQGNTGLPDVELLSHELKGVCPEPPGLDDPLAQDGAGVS
SMILES,IC50 [1] [nM],IC50 [2] [nM]
"Cc1c(-c2ncco2)nc(N)n2nc(Cc3cccc(C(C)(C)O)c3)nc12 [Example 6.6, 2-(3-((5-amino-8-methyl-7-(oxazol-2-yl)-[1,2,4]triazolo[1,5-c]pyrimidin-2-yl)methyl)phenyl)propan-2-ol]",1.9,243
"Cc1c(-c2ncco2)nc(N)c2nc(Cc3ccc(C(C)(C)O)cc3)nn12 [Example 6.7, 2-(4-((8-amino-5-methyl-6-(oxazol-2-yl)-[1,2,4]triazolo[1,5-a]pyrazin-2-yl)methyl)phenyl)propan-2-ol]",15.7,30.1
"Cc1c(-c2ncco2)nc(N)n2nc(CNCc3ccc(C(F)(F)F)cc3)nc12 [Example 10.2, 8-methyl-7-(oxazol-2-yl)-2-(((4-(trifluoromethyl)benzyl)amino)methyl)-[1,2,4]triazolo[1,5-c]pyrimidin-5-amine]",4.5,48.4
"Cc1c(-c2ncco2)nc(N)n2nc(CNCc3ccc(C(F)(F)F)cn3)nc12 [Example 10.4, 8-methyl-7-(oxazol-2-yl)-2-((((5-(trifluoromethyl)pyridin-2-yl)methyl)amino)methyl)-[1,2,4]triazolo[1,5-c]pyrimidin-5-amine]",156,330
"Cc1c(-c2cccc(F)c2)nc(N)n2nc(CNCc3ccc(C(F)(F)F)cc3)nc12 [Example 10.5, 7-(3-fluorophenyl)-8-methyl-2-(((4-(trifluoromethyl)benzyl)amino)methyl)-[1,2,4]triazolo[1,5-c]pyrimidin-5-amine]",163,157
"Cc1c(-c2ncco2)nc(N)n2nc(CNCc3ccc(C(C)(C)O)cn3)nc12 [Example 11.3, 2-(6-((((5-amino-8-methyl-7-(oxazol-2-yl)-[1,2,4]triazolo[1,5-c]pyrimidin-2-yl)methyl)amino)methyl)pyridin-3-yl)propan-2-ol]",15.5,40.6
"Cc1c(-c2ncco2)nc(N)n2nc(CNCc3ccc(C(C)(C)O)nc3)nc12 [Example 11.4, 2-(5-((((5-amino-8-methyl-7-(oxazol-2-yl)-[1,2,4]triazolo[1,5-c]pyrimidin-2-yl)methyl)amino)methyl)pyridin-2-yl)propan-2-ol]",5.4,744
"Cc1c(-c2ncco2)nc(N)n2nc(CNCc3cnn(CC(C)(C)O)c3)nc12 [Example 11.5, 1-(4-((((5-amino-8-methyl-7-(oxazol-2-yl)-[1,2,4]triazolo[1,5-c]pyrimidin-2-yl)methyl)amino)methyl)-1H-pyrazol-1-yl)-2-methylpropan-2-ol]",15.2,1320
"Cc1c(-c2ncco2)nc(N)n2nc(CCS(=O)(=O)C3CC3)nc12 [Example 15.3, 2-(2-(cyclopropylsulfonyl)ethyl)-8-methyl-7-(oxazol-2-yl)-[1,2,4]triazolo[1,5-c]pyrimidin-5-amine]",7.3,151
"Cc1c(-c2cccc(F)c2)nc(N)n2nc(CCS(=O)(=O)C3CC3)nc12 [Example 16.2, 2-(2-(cyclopropylsulfonyl)ethyl)-7-(3-fluorophenyl)-8-methyl-[1,2,4]triazolo[1,5-c]pyrimidin-5-amine]",19.3,453
"Cc1c(-c2ncco2)nc(N)n2nc(CCN3CCn4c(cnc4C4CCCC4)C3)nc12 [Example 17.3, 2-(2-(3-cyclopentyl-5,6-dihydroimidazo[1,5-a]pyrazin-7(8H)-yl)ethyl)-8-methyl-7-(oxazol-2-yl)-[1,2,4]triazolo[1,5-c]pyrimidin-5-amine]",4.2,17.7
"Cc1c(-c2ncco2)nc(N)n2nc(CCN3Cc4cn(CC(C)(C)O)nc4C3)nc12 [Example 17.4, 1-(5-(2-(5-amino-8-methyl-7-(oxazol-2-yl)-[1,2,4]triazolo[1,5-c]pyrimidin-2-yl)ethyl)-5,6-dihydropyrrolo[3,4-c]pyrazol-2(4H)-yl)-2-methylpropan-2-ol]",9.4,1430
"Cc1c(-c2ncco2)nc(N)n2nc(CCN3Cc4cnn(C)c4C3)nc12 [Example 17.5, 8-methyl-2-(2-(1-methyl-4,6-dihydropyrrolo[3,4-c]pyrazol-5(1H)-yl)ethyl)-7-(oxazol-2-yl)-[1,2,4]triazolo[1,5-c]pyrimidin-5-amine]",43.6,688
"Cc1cc2n(n1)CCN(CCc1nc3c(C)c(-c4ncco4)nc(N)n3n1)C2 [Example 17.6, 8-methyl-2-(2-(2-methyl-6,7-dihydropyrazolo[1,5-a]pyrazin-5(4H)-yl)ethyl)-7-(oxazol-2-yl)-[1,2,4]triazolo[1,5-c]pyrimidin-5-amine]",16.3,677
"Cc1c(-c2ncco2)nc(N)n2nc(CCN3CCc4nn(C5CC(F)(F)C5)cc4C3)nc12 [Example 17.9, 2-(2-(2-(3,3-difluorocyclobutyl)-2,4,6,7-tetrahydro-5H-pyrazolo[4,3-c]pyridin-5-yl)ethyl)-8-methyl-7-(oxazol-2-yl)-[1,2,4]triazolo[1,5-c]pyrimidin-5-amine]",4.1,97

# Stronger by IC50 [1], values ahead:
IC50 [1] [nM],IC50 [2] [nM],SMILES
1.3,29.9,Cc1cccnc1Cc1nc2c(N)nc(-c3ncco3)c(C)n2n1 [Example 8.3]
1.3,18.6,Cc1c(-c2ncco2)nc(N)c2nc(Cc3ncccc3F)nn12 [Example 8.4]
1.3,301,"Cc1c(-c2ncco2)nc(N)n2nc(CCN3CCc4nn(C5CCCC5)cc4C3)nc12 [Example 17.11, 2-(2-(2-cyclopentyl-2,4,6,7-tetrahydro-5H-pyrazolo[4,3-c]pyridin-5-yl)ethyl)-8-methyl-7-(oxazol-2-yl)-[1,2,4]triazolo[1,5-c]pyrimidin-5-amine]"
1.2,330,"Cc1c(-c2ncco2)nc(N)c2nc(Cc3cccc(C(C)(C)O)c3)nn12 [Example 6.8, 2-(3-((8-amino-5-methyl-6-(oxazol-2-yl)-[1,2,4]triazolo[1,5-a]pyrazin-2-yl)methyl)phenyl)propan-2-ol]"
1.2,45,"Cc1c(-c2ncco2)nc(N)n2nc(CCN3CCc4c(cnn4C4CCCC4)C3)nc12 [Example 17.12, 2-(2-(1-cyclopentyl-1,4,6,7-tetrahydro-5H-pyrazolo[4,3-c]pyridin-5-yl)ethyl)-8-methyl-7-(oxazol-2-yl)-[1,2,4]triazolo[1,5-c]pyrimidin-5-amine]"
1.1,62.6,"Cc1c(-c2ncco2)nc(N)n2nc(CNCc3ccc(C(C)(C)O)cc3)nc12 [Example 11.2, 2-(4-((((5-amino-8-methyl-7-(oxazol-2-yl)-[1,2,4]triazolo[1,5-c]pyrimidin-2-yl)methyl)amino)methyl)phenyl)propan-2-ol]"
0.7,1990,Cc1c(-c2ncco2)nc(N)n2nc(CN(Cc3ccc(C(F)(F)F)cc3)CC(F)F)nc12 [Example 12.3]
0.6,17.8,"Cc1c(-c2ncco2)nc(N)n2nc(CCN3CCn4c(cnc4C45CC(C4)C5)C3)nc12 [Example 17.7, 2-(2-(3-(bicyclo[1.1.1]pentan-1-yl)-5,6-dihydroimidazo[1,5-a]pyrazin-7(8H)-yl)ethyl)-8-methyl-7-(oxazol-2-yl)-[1,2,4]triazolo[1,5-c]pyrimidin-5-amine]"
0.6,20.6,"Cc1c(-c2ncco2)nc(N)n2nc(CCN3CCc4c(cnn4C4CC(F)(F)C4)C3)nc12 [Example 17.10, 2-(2-(1-(3,3-difluorocyclobutyl)-1,4,6,7-tetrahydro-5H-pyrazolo[4,3-c]pyridin-5-yl)ethyl)-8-methyl-7-(oxazol-2-yl)-[1,2,4]triazolo[1,5-c]pyrimidin-5-amine]"
0.5,2.6,"Cc1c(-c2ncco2)nc(N)n2nc(Cc3ccn(C)n3)nc12 [Example 7.6, 8-methyl-2-((1-methyl-1H-pyrazol-3-yl)methyl)-7-(oxazol-2-yl)-[1,2,4]triazolo[1,5-c]pyrimidin-5-amine]"
0.4,14.5,"Cc1c(-c2ncco2)nc(N)n2nc(CN3CCc4cccnc43)nc12 [Example 10.3, 2-((2,3-dihydro-1H-pyrrolo[2,3-b]pyridin-1-yl)methyl)-8-methyl-7-(oxazol-2-yl)-[1,2,4]triazolo[1,5-c]pyrimidin-5-amine]"
0.4,489,"Cc1c(-c2ncco2)nc(N)n2nc(CN(Cc3ccc(C(C)(C)O)cc3)CC(F)F)nc12 [Example 13.1, 2-(4-((((5-amino-8-methyl-7-(oxazol-2-yl)-[1,2,4]triazolo[1,5-c]pyrimidin-2-yl)methyl)(2,2-difluoroethyl)amino)methyl)phenyl)propan-2-ol]"
0.4,20.3,"Cc1c(-c2ncco2)nc(N)n2nc(CCN3CCn4c(cnc4C4CC(F)(F)C4)C3)nc12 [Example 17.2, 2-(2-(3-(3,3-difluorocyclobutyl)-5,6-dihydroimidazo[1,5-a]pyrazin-7(8H)-yl)ethyl)-8-methyl-7-(oxazol-2-yl)-[1,2,4]triazolo[1,5-c]pyrimidin-5-amine]"
